Reference: patent publication US6506744B1, “Benzazepinone-derivatives” (Hoffmann-La Roche Inc., priority 1999, dated 2003)

melting point	Compound
116 °C (dec.)	CN1C(=O)CN(CC(=O)NCCC(=O)O)C(=O)c2cc(NC(=O)NCc3ccccc3)ccc21 [Example 3, 3-[2-[7-(3-benzyl-ureido)-1-methyl-2,5-dioxo-1,2,3,5-tetrahydro-benzo[e][1,4]diazepin-4-yl]-acetylamino]-propionic acid]
138 to 140 °C	O=C(O)C[C@@H](NC(=O)CN1C[C@H](c2ccccc2)Oc2ccc(NC(=O)NCc3ccccc3)cc2C1=O)c1ccccc1 [Example 21, (R,S)-3-{2-[7-(3-benzyl-ureido)-5-oxo-2-phenyl-2,3-dihydro-5H-benzo[f][1,4]oxazepin-4-yl]-acetylamino}-3-phenyl-propionic acid]
126 °C	CN1C(=O)CN(CC(=O)NCCC(=O)O)C(=O)c2cc(NC(=N)N)ccc21.Cl
